Source: US20100255580A1, “Differentiation of Human Embryonic Stem Cells” (LIFESCCAN, INC., priority 2007, published 2010)

Experiments:
[1] = system: human embryonic stem cell line H9; test: Real-time PCR of marker gene expression, H9 on MEF (Examples 2-7); format: cell-based
Experimental: Cells were harvested at the time points indicated in FIG. 3 and assayed by PCR for the expression of genes shown (FIGS. 3, 4 and 5).
After this time interval, the cells were then treated for six days with combinations of retinoic acid and FGF as outlined in Example 2, then the culture medium was removed and replaced with medium comprising DMEM/F12 with 2% FBS, containing the γ-secretase inhibitors L-685,458 at 10 μM for three days.
Cells were continuously cultured for another 3 to 5 days in basal medium with retinoic acid at 1 μM, alone or with bFGF. RNA samples were harvested from cells at various time points along this process to help evaluate the directed differentiation of the cells. Furthermore, culture medium and factors were regularly removed and replenished throughout the differentiation protocol.
RNA extraction, purification, and cDNA synthesis. RNA samples were purified by binding to a silica-gel membrane (Rneasy Mini Kit, Qiagen, CA) in the presence of an ethanol-containing, high-salt buffer followed by washing to remove contaminants. The RNA was further purified using a TURBO DNA-free kit (Ambion, INC), and high-quality RNA was then eluted in water. Yield and purity were assessed by A260 and A280 readings on a spectrophotometer. cDNA copies were made from purified RNA using an ABI (ABI, CA) high capacity cDNA archive kit.
(§1) Real-time PCR amplification and quantitative analysis.
(§2) Final data were expressed relative to a calibrator sample.

H9P44 cells = test: RT-PCR of definitive endoderm markers, growth factor combinations in low serum on MEFs (Example 22); format: cell-based, human; settings: H9P44 on MEF; Day 3; normalized to Group 1 (control)
Experimental: as §1, §2
H9P44 cells were plated onto 6 well plates previously coated with mitomycin treated mouse embryonic fibroblasts (MEF). Cells were grown until 70 to 80% confluency in ES cell medium consisting of DMEM/F12 (Invitrogen/GIBCO) supplemented with 20% knockout serum replacement, 100 nM MEM nonessential amino acids, 0.5 mM beta-mercaptoethanol, 2 mM L-glutamine (all from Invitrogen/GIBCO) and 8 ng/ml human basic fibroblast growth factor (bFGF) (R&D Systems).
Growth factors were added to increasing concentration of FBS in a stepwise manner as indicated in the following regimen: • Day 0: 0% FBS in DMEM/F12 • Day 1: 0.5% FBS in DMEM/F12 • Day 2: 2% FBS in DMEM/F12. • Day 3: Cells were harvested for FACS analysis and RT-PCR.
All growth factors were purchased from R&D Systems, MN. A detailed description and concentration of growth factors for each treatment group is shown below.
For RT-PCR analysis, cells were analyzed for expression of selected panel of definitive endoderm markers.

[2] = system: human embryonic stem cells (H9, H7) on MATRIGEL; test: Real-time PCR of definitive endoderm markers, DE protocol on […] or fibronectin (feeder-free); format: cell-based; settings: for definitive endoderm markers (real-time PCR): H7 and H9, low serum+AA+/−Wnt ligands, 5 days
Experimental: as §1, §2
Differentiation of embryonic stem cells to definitive endoderm was carried out as previously described in Nature Biotechnology 23, 1534-1541 (December 2005). […] In all subsequent examples unless otherwise noted, this treatment regimen will be referred to as the definite endoderm (DE) protocol. In parallel, H9, H7, or H1 cells cultured on MEF feeders were also exposed to the same DE protocol outlined above.
At day 5, the cultures were analyzed by FACS for CXCR4, E-cadherin, CD9, CD99, and N-cadherin (CD56) expression and by real time PCR for SOX-17, SOX-7, Alpha-fetal protein (AFP), CXCR4, Brychyury (Bry), gooscecoid (GSC), HNF-3 beta, and GATA4. AFP and SOX-7 are regarded as visceral endoderm markers while GATA4, HNF-3beta and SOX-17 represent definite endoderm markers and GSC, Bry, and CXCR4 represent markers of primitive streak.
In some of the cultures 20 ng/ml Wnt-3a (Catalog #1324-WN-002, R&D Systems, MN), 20 ng/ml Wnt-5a (Catalog #654-WN-010, R&D Systems, MN), 25 ng/ml Wnt-7a (Catalog #3008-WN-025, R&D Systems, MN), or 25 ng/ml Wnt-5b (Catalog #3006-WN-025, R&D Systems, MN) was added throughout the five day treatment. FIG. 24 depicts phase contrast images of H9P46 definitive endoderm culture in the presence of high concentration of (a) AA or (b) AA+20 ng/ml Wnt-3a. FIG. 25 depicts the expression of CXCR4 by FACS at day 5 for H7P44, and H9P46 lines cultured on […] (1:30 dilution) and exposed to the DE protocol+Wnt-3a (FIG. 25, panels b and d) and −Wnt-3a (FIG. 25, panels a and c).
Control cultures were not treated with Wnt-3a. FIG. 27, panel a depicts the expression of CXCR4 by FACS at day 5 in the absence of Wnt-3a, b) 10 ng/ml Wnt-3a, c) 20 ng/ml Wnt-3a and d) 50 ng/ml Wnt-3a. In the absence of Wnt-3a the expression of CXCR4 was very low. […] Real-time PCR results (FIG. 28, panel a) also confirm this finding.
In a separate study, H9 p52 cells were plated on 1:30 low growth factor […]™. For the first 2 days of the DE protocol a range of Wnt3A doses was used: 10 ng/ml, 5 ng/ml and 1 ng/ml. […] The number of cells at the end of the experiment is noted in FIG. 28, panel c.
In order to confirm that the effect of Wnt-3a was through the Wnt pathway, a GSK-3 inhibitor was used to activate the downstream targets of Wnt, such as beta catenin. […] FIG. 29, panel a depicts the expression of CXCR4 by FACS at day 5 in the absence of Wnt-3a or GSK-3B inhibitor, b) +20 ng/ml Wnt-3a, c) +1000 nM GSK-3B inhibitor IX, d) +500 nM GSK-3B inhibitor IX, e) +100 nM GSK-3B inhibitor IX, f) +10 nM GSK-3B inhibitor IX, g) +100 nM GSK-3B inhibitor IX for days 1-2, and h) +10 nM GSK-3B inhibitor IX for days 1-2.
FIG. 31 panels a-d is for H9P49 cells and panels e-f is for H1P46 cells.
Results are expressed as fold increase over untreated cells. […] Results are expressed as fold increase over untreated cells.
H9P55 cells were grown and differentiated on human fibronectin or regular growth factor […]™ (BD Biosciences). lml of DMEM/F12 (Invitrogen/GIBCO) containing 1 ug/ml of human fibronectin (R&D systems, MN) was added to each well of 6 well tissue culture treated dish. Alternatively, regular growth factor […]™ was diluted 1:10 in DMEM/F12 and 1 ml of diluted […]™ was added to each well of 6 well tissue culture treated dish. Cells were passed with collagenase. […] Real-time PCR results (FIG. 39) confirm that formation of definitive endoderm was equivalent on fibronectin and […]™ coated plates.
To determine if the addition of Wnt-3a was causing the increase in differentiation, an inhibitor of Wnt-3 signaling was added to the cultures. […] H9 cells were cultured on plates coated with Growth Factor Reduced […] at a 1:30 dilution. The plates were coated with […] for 1 hr at room temperature. […]

With `CC(C)C[C@H](NC(=O)[C@H](Cc1ccccc1)C[C@@H](O)[C@H](Cc1ccccc1)NC(=O)OC(C)(C)C)C(=O)N[C@@H](Cc1ccccc1)C(N)=O` [L-685,458, reference compound] the NeuroD1 expression ([1]; L-685,458 10 μM for three days) was “increased further”, the “expression of Ngn3 versus activin A alone or retinoic acid with FGFs” value ([1]; L-685,458 10 μM for three days) was “approximately 50 fold” and the “increase of insulin expression” value ([1]; L-685,458 10 μM for three days) was 70 fold. The “expression of Hes-1” value ([1]; L-685,458 10 μM, maximal inhibition on day three) was “decrease”.

For Group 9: IL-4 (10 ng/ml), the CXCR4 relative expression (H9P44 cells) was 1.4, the Goosecoid relative expression (H9P44 cells) was 0.9 and the HNF-3B relative expression (H9P44 cells) was 0.89. For the same molecule, the Oct-4 relative expression (H9P44 cells) was 0.85, the SOX-2 relative expression (H9P44 cells) was 1.2 and the Sox17 relative expression (H9P44 cells) was 1.

For fibronectin, the “formation of definitive endoderm (real-time PCR)” value ([2]; H9P55, fibronectin vs MATRIGEL coated plates) was “equivalent”.

B1: Wnt-5a: Wnt ligand (Catalog #654-WN-010, R&D Systems, MN) (protein, UniProt P41221 62-380, looked up)
Protein Wnt-5a: IIGAQPLCSQLAGLSQGQKKLCHLYQDHMQYIGEGAKTGIKECQYQFRHRRWNCSTVDNTSVFGRVMQIGSRETAFTYAVSAAGVVNAMSRACREGELSTCGCSRAARPKDLPRDWLWGGCGDNIDYGYRFAKEFVDARERERIHAKGSYESARILMNLHNNEAGRRTVYNLADVACKCHGVSGSCSLKTCWLQLADFRKVGDALKEKYDSAAAMRLNSRGKLVQVNSRFNSPTTQDLVYIDPSPDYCVRNESTGSLGTQGRLCNKTSEGMDGCELMCCGRGYDQFKTVQTERCHCKFHWCCYVKCKKCTEIVDQFVCK
With B1 the “definitive endoderm markers (real-time PCR)” value (shortened to “definitive endoderm markers”) [2] was “minimal impact”.

B2: Wnt-5b: Wnt ligand (Catalog #3006-WN-025, R&D Systems, MN) (protein, UniProt Q9H1J7 18-359, looked up)
Protein Wnt-5b: QLLTDANSWWSLALNPVQRPEMFIIGAQPVCSQLPGLSPGQRKLCQLYQEHMAYIGEGAKTGIKECQHQFRQRRWNCSTADNASVFGRVMQIGSRETAFTHAVSAAGVVNAISRACREGELSTCGCSRTARPKDLPRDWLWGGCGDNVEYGYRFAKEFVDAREREKNFAKGSEEQGRVLMNLQNNEAGRRAVYKMADVACKCHGVSGSCSLKTCWLQLAEFRKVGDRLKEKYDSAAAMRVTRKGRLELVNSRFTQPTPEDLVYVDPSPDYCLRNESTGSLGTQGRLCNKTSEGMDGCELMCCGRGYNQFKSVQVERCHCKFHWCCFVRCKKCTEIVDQYICK
With B2 the “definitive endoderm markers” value [2] was “minimal impact”.

B3: DKK1: Wnt Inhibitor; inhibitor of Wnt-3 signaling (protein, UniProt O94907 32-266, looked up)
Dickkopf-related protein 1: TLNSVLNSNAIKNLPPPLGGAAGHPGSAVSAAPGILYPGGNKYQTIDNYQPYPCAEDEECGTDEYCASPTRGGDAGVQICLACRKRRKRCMRHAMCCPGNYCKNGICVSSDQNHFRGEIEETITESFGNDHSTLDGYSRRTTLSSKMYHTKGQEGSVCLRSSDCASGLCCARHFWSKICKPVLKEGQVCTKHRRKGSHGLEIFQRCYCGEGLSCRIQKDHHQASNSSRLHTCQRH
With B3 the “expression level of differentiation markers (CXCR4, GATA4, HNF-3beta, SOX17, goosecoid)” value ([2]; H9, 100 ng/ml DKK1 with 20 ng/ml Wnt3a and 100 ng/ml activin A, day 5) was “dramatically decrease”.

B4: Wnt-7a: Wnt ligand (Catalog #3008-WN-025, R&D Systems, MN) (protein, UniProt O00755 32-349, looked up)
Protein Wnt-7a: LGASIICNKIPGLAPRQRAICQSRPDAIIVIGEGSQMGLDECQFQFRNGRWNCSALGERTVFGKELKVGSREAAFTYAIIAAGVAHAITAACTQGNLSDCGCDKEKQGQYHRDEGWKWGGCSADIRYGIGFAKVFVDAREIKQNARTLMNLHNNEAGRKILEENMKLECKCHGVSGSCTTKTCWTTLPQFRELGYVLKDKYNEAVHVEPVRASRNKRPTFLKIKKPLSYRKPMDTDLVYIEKSPNYCEEDPVTGSVGTQGRACNKTAPQASGCDLMCCGRGYNTHQYARVWQCNCKFHWCCYVKCNTCSERTEMYTCK
In the case of B4, the “definitive endoderm markers” value [2] is reported as “minimal impact”.

B5: BMP-4: BMP-4 (Catalog #314-BP-010, R&D Systems, MN) (protein, UniProt P12644 293-408, looked up)
Bone morphogenetic protein 4: SPKHHSQRARKKNKNCRRHSLYVDFSDVGWNDWIVAPPGYQAFYCHGDCPFPLADHLNSTNHAIVQTLVNSVNSSIPKACCVPTELSAISMLYLDEYDKVVLKNYQEMVVEGCGCR
For B5, the “mesoderm marker BRY” value ([2]; H9P53, BMP-4 25 ng/ml added to the DE protocol) was “induce formation”.
